Data reported in PMC10148497, “Evaluation of Bacillus aryabhattai B8W22 peroxidase for phenol removal in waste water effluents” (BMC Microbiology, 2023).

Test system: T1, peroxidase from Bacillus aryabhattai B8W22
T1 construct: gene extracellular peroxidase; 66 kDa on SDS-PAGE
Test: peroxidase activity assay, Lineweaver-Burk plot
Format: biochemical, Priestia aryabhattai
Conditions: co-substrate, pH and temperature of the kinetic assay not given

Km: 6.942 mg/mL
Compound: COc1ccccc1O [guaiacol]
